Results: patent publication US20170176446A1, “Methods for Determining the Oncogenic Condition of Cell, Uses Thereof, and Methods for Treating Cancer” (INSERM (INSTITUT NATIONAL DE LA SANTE ET DE LA RECHERCHE …, priority 2009, published 2017)

How the values were obtained:
[1] = molecular target: T1, ChEH (Rattus norvegicus, UniProt Q9JJ46); assay: Determination of the Ki for ChEH on rat liver microsome proteins (Dixon method); assay type: biochemical; details: 150 μg rat liver microsome proteins, [14C]CEα
T1 construct: 150 μg of rat liver microsome proteins are incubated; from tissue; host or cells: rat liver microsomes
T1 sequence (Q9JJ46 1-230): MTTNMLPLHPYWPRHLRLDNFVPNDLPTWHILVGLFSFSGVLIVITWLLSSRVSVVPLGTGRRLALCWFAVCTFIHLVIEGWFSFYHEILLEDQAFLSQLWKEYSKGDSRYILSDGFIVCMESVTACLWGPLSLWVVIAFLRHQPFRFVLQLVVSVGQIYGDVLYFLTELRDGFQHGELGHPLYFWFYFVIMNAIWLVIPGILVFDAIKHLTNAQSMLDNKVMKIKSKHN

[2] = system: MCF7 cells; assay: OCDO production by MCF7 cells incubated with [14C]CE, thin-layer chromatography; assay type: cell-based, human; details: concentration in μM in parentheses after each molecule; control = 100
Source text: For assays 1 to 5 and in some of the examples given later in this patent application, MCF7 tumor cells, which originate from the American Tissue Culture Collection (ATCC), were used. […] It is desired to study the activity of ChEH in […] cells by silica thin-layer chromatography. The compounds that it is desired to visualize are the CE and CT compounds defined above. In order to visualize the spots corresponding to CE and CT on a chromatography plate, ^14C-labeled CE and CT compounds were synthesized.
In order to be used in assays 1 to 5 which follow, the cells are seeded into 6-well plates at a density of 80 000 cells in a volume of 2 ml. […] After the incubation time desired for the assay, the medium is collected, the cells are washed with cold PBS (phosphate buffer) (2 ml per well) which is pooled with the medium. The cells are then scraped into cold PBS (1 ml for 3 wells); the wells are again rinsed with cold PBS (1 ml for 3 wells). The cell suspension obtained is centrifuged at 1000 rpm for 5 min at 4° C. […] Throughout the rest of this description, the vehicle solvent used is the same as that defined above.
The aqueous and organic radioactivities are counted. The organic phases are brought to dryness under argon. The residue is resuspended in 60 μl of ethanol and then deposited, in a proportion of 20 μl per lane, on to the glass-backed silica plates (Whatman LK-6-DF, 20×20), which are used in the various assays (these plates having been preheated at 100° C. for 1 hour). The migration solvent used is ethyl acetate. The chromatography plates are placed in contact with a “phosphor-screen” plate in a cassette overnight. […] In order to evaluate the more or less dense nature of the spots obtained on the plates, the radioactivity is quantified by densitometry with the “Imagequant”™ computer program.
Generally, in order to establish the percentages of OCDO inhibition from the thin-layer chromatography (TLC) plates obtained as in assay 2, the radioactive metabolites are identified and quantified on the basis of said plates using a europium-sensitive plate of GP Phosphor screen type (GE Healthcare) and a Storm 840 phosphorimagor (GE Healthcare). The proportion of radiolabeled oxysterols is determined on the autoradiogram obtained by densitometry using the Image Quant 5.2 software. The percentage is calculated on the basis of the ratio between the amount of oxysterols quantified divided by the sum of the amounts of oxysterols (CEE+CE+CT+OCDO). Since the CEE (CE ester) originates exclusively from the CE, the percentage CE is calculated on the basis of the ratio (CE+CEE)/(CE+CEE+CT+OCDO).
Assay 2 given above was therefore completed by measuring the amounts of the products present when the MCF7 tumor cells are incubated as indicated in detail in assay 2.
In order to establish that the link that exists between, on the one hand, the ability of various compounds to inhibit OCDO in an MCF7 tumor cell and, on the other hand, their quality as a ChEH inhibitor, is well-founded, the inhibition coefficients Ki for ChEH relating to a certain number of products was calculated and the production of OCDO by MCF7 cells after incubation of the cells with the same products was measured according to the protocol defined in assay 2 of the present patent application.

[3] = molecular target: T2, ChEH (Homo sapiens, UniProt Q15125); assay: Inhibition of ChEH activity in MCF7 cells (TLC of [14C]CE conversion); assay type: cell-based; details: 48 hours, MCF7 cells
T2 construct: MCF7 tumor cells, which originate from the American Tissue Culture Collection (ATCC), were used; host or cells: MCF7
Method: For this experiment, an aminoalkyl sterol included in French patent 2 838 741 (and also see: de Medina et al., J Med Chem: 2009, vol. 52, No. 23, p. 7765-7777), having the formula: 6-N-[2-(3H-imidazol-4-yl)ethylamino]cholestane-3β,5α-diol (DDA), was chosen. […]
A thin-layer chromatography was carried out, the plate of which has been reproduced in FIG. 23. On this plate, the incubation is carried out, for lane 1, with [^14C]CE; for lane 2, with [^14C]CT; for lane 3, with the vehicle solvent, which is the same as that used for assays 1 to 5; for lane 4, with [14C]CE and 0.1 μM of the aminoalkyl sterol; and for lane 5, with [^14C]CE and a concentration of 1 μM of the aminoalkyl sterol.

[4] = molecular target: T2, ChEH; assay: ChEH activity on MCF7 cell lysate (homogenate); assay type: biochemical; details: 150 μg of proteins, read-out: (IC50)homogenate, ChEH inhibition
Method: Moreover, a study of this inhibition on homogenate was also carried out. The protocol is as follows: the MCF7 cells are detached with trypsin and taken up with RPMI medium containing 5% FBS. The cell suspension obtained (60 million cells) is centrifuged, washed with cold PBS and resuspended in 1 ml of […] buffer (pH=7.4; 150 mM KCl). The cells are lyzed by means of five freezing/thawing (liquid nitrogen/37° C.) cycles. The solution is centrifuged at 1200 rpm at 4° C. for 10 minutes. The supernatant is recovered and the amount of proteins is determined by the Bradford method. The measurement of the ChEH activity on MCF7 cell lysate is carried out as follows: the enzymatic activity is measured on 150 μg of proteins in a final volume of 150 μl containing […] of ChEH buffer (Tris-HCl, pH 7.4, 150 mM KCl) and 15 μl of MCF7 proteins.

[5] = system: TS/A cells; assay: Tumor size of TS/A tumors implanted in BALB/c mice, intratumoral treatment; assay type: in vivo; details: DDA 10 μM, 100 μl intratumorally once a day
Method: A cell culture of TS/A cells was first performed. These TS/A cells are mouse mammary adenocarcinomas (see Nanni P et al., Clin. Exp. Metastasis, 1983 October-December; 1(4): 373-80). The cells are cultured, at 37° C. under 5% CO2, in a DMEM medium supplemented with 2 g/liter of sodium carbonate, 1.2 mM of glutamine (pH 7.4 at 23° C.), 5% of fetal bovine serum (Gibco) and 2.5 ml of antibiotics per liter of medium (penicillin/streptomycin).
The TS/A cells are recovered with trypsin, washed twice and suspended in PBS buffer. The TS/A cells (approximately 4×10^6 […] cells/0.1 ml) are then injected subcutaneously into the flank of 6-week-old female BALB/c mice (supplied by Charles River). […] The animals (10 mice per group) are monitored regularly for tumor development. The volume of the tumors is calculated according to the following formula: L×l^2×0.5 (L is the length and l is the width of the tumor). The experiment was reproduced twice. The results are given in FIG. 18 (the arrow indicates the beginning of the treatment).

[6] = system: OCDO; assay: OCDO content of TS/A tumors by GC/MS; assay type: in vivo, mice; details: DDA 10 μM, 100 μl intratumorally once a day
Method: 5 volumes (relative to the mass removed) of buffer (50 mM Tris-HCl, 150 mM KCl, pH=7.4) are added. The tumors are ground and the homogenates are centrifuged for 5 minutes at 2500 rpm at 4° C. […] After centrifugation (to separate the phases), the organic phase is recovered. The organic phase is evaporated to dryness and then the residue is taken up with 0.5 ml of chloroform. The organic extracts are filtered on 0.5 ml silica cartridges. The polar sterols are eluted sequentially:
1) 0.5 ml of a hexane/chloroform mixture (1/1), 2) 0.5 ml of chloroform, 3) 0.5 ml of ethyl acetate and methanol.
The ethyl acetate fractions are evaporated, silylated (50 μl 1/1 acetonitrile/BSTFA) and then analyzed by GC/MS (2 μl) according to the conditions described above.

T2 sequence (Q15125 whole entry): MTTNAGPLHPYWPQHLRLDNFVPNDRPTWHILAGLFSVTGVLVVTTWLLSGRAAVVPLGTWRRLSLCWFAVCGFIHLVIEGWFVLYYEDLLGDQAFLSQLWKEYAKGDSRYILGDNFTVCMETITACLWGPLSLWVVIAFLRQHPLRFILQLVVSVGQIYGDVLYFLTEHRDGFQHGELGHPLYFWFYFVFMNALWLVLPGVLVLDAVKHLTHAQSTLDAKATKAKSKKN

Compound: CC(C)CCC[C@@H](C)[C@H]1CC[C@H]2[C@@H]3C[C@@H](NCCc4c[nH]cn4)[C@@]4(O)C[C@@H](O)CC[C@]4(C)[C@H]3CC[C@]12C [DDA, 6-N-[2-(3H-imidazol-4-yl)ethylamino]cholestane-3β,5α-diol]
- Ki [1]: 1.25 ± 0.006 µM
- OCDO production by MCF-7 (% control) [2]: <1 % control
- inhibition of ChEH ([3]; 0.1 and 1 μM, dependent on the concentration): causes an inhibition of ChEH
- IC50 ([3]; [14C]CE 0.6 μM): 0.6 µM
- IC50 [4]: 11.2 µM
- Tumor size (% control) ([5]; Day 28): 65.4 ± 7 % control
- Tumor size (% control) ([5]; Day 37): 28.3 ± 8 % control
- OCDO (% control) ([6]; Day 28): 14.5 ± 3 % control
- OCDO (% control) ([6]; Day 37): 4.5 ± 3 % control
